In US20120302573A1, “METHODS OF INHIBITING PRO MATRIX METALLOPROTEINASE ACTIVATION” (priority 2011, published 2012):
Counter-ions that a name gives are not always drawn.

Columns and labels:
[1] = target: T1, proMMP9(20-445;ΔFnII) (SEQ ID NO:6) (Homo sapiens, UniProt P14780, DEL216-390); assay: ThermoFluor binding assay with proMMP9(20-445;ΔFnII)
T1 construct: amino acid pairs including: 29-215/391-444, 67-215/391-444, and 20-215/391-445, respectively; start methionine (N); made in house; host or cells: E. coli BL21(DE3) RIL
T1 sequence (P14780 with tags, fused parts or gaps DEL216-390): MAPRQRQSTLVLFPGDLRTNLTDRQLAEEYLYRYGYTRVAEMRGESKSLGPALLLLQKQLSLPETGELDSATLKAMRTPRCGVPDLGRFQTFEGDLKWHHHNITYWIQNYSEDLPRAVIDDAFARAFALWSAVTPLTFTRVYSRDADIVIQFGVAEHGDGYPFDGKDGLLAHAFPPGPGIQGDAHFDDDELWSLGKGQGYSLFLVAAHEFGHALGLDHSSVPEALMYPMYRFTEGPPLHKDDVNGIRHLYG
Description: (§1) The experiments were carried out using instruments available from Johnson & Johnson Pharmaceutical Research & Development, LLC. TF dye used in all experiments was […] (1,8-ANS) (Invitrogen: A-47).
(§2) Columns 12 and 24 were used as DMSO reference and contained no compound. […] Following compound dispense, protein and dye solutions were added to achieve the final assay volume of 3 μL.
(§3) Assay plates were robotically loaded onto a thermostatically controlled PCR-type thermal block and then heated from 40 to 90° C. at a ramp-rate of 1° C./min for all experiments. Fluorescence was measured by continuous illumination with UV light (Hamamatsu LC6) supplied via fiber optics and filtered through a band-pass filter (380-400 nm; >6 OD cutoff). Fluorescence emission of the entire 384-well plate was detected by measuring light intensity using a CCD camera (Sensys, Roper Scientific) filtered to detect 500±25 nm, resulting in simultaneous and independent readings of all 384 wells.
(§4) Thermodynamic parameters necessary for fitting compound binding for each proMMP were estimated by differential scanning calorimetry (DSC) and from ThermoFluor® data. The heat capacity of unfolding for each protein was estimated from the molecular weight and from ThermoFluor® dosing data.
The protein sample preparations included a desalting buffer exchange step via a PD-10 gravity column (GE Healthcare).

[2] = target: T2, proMMP13(1-268) (SEQ ID NO:7) (Homo sapiens, UniProt P45452); assay: ThermoFluor binding assay with proMMP13(1-268)
T2 construct: 6x-histidine tag (C); made in house; host or cells: HEK293
Description: The ThermoFluor® (TF) assay is a 384-well plate-based binding assay that measures thermal stability of proteins (Biomol Screen 2001, 6, 429-40; Biochemistry 2005, 44, 5258-66). The experiments were carried out using instruments available from Johnson & Johnson Pharmaceutical Research & Development, LLC. TF dye used in all experiments was […] (1,8-ANS) (Invitrogen: A-47).
Compounds were arranged in a pre-dispensed plate (Greiner Bio-one: 781280), wherein compounds were serially diluted in 100% DMSO across 11 columns within a series. Columns 12 and 24 were used as DMSO reference and contained no compound. For multiple compound concentration-response experiments, the compound aliquots ([…]) were robotically predispensed directly into black 384-well polypropylene PCR microplates (Abgene: TF-0384/k) using a Cartesian Hummingbird liquid handler (DigiLab, Holliston, Mass.). Following compound dispense, protein and dye solutions were added to achieve the final assay volume of 3 μL. The assay solutions were overlayed with 1 μL of silicone oil (Fluka, type DC 200: 85411) to prevent evaporation.
as §3, with “wells. A single image with 20-sec exposure time was collected at each temperature, and the sum of the pixel intensity in a given area of the assay plate was recorded vs temperature and fit to standard equations to yield the Tm (J Biomol Screen 2001, 6, 429-40).” for “wells.”
as §4
The proMMP13(1-268) (SEQ ID NO:7) protein sample preparations included a desalting buffer exchange step via a PD-10 gravity column (GE Healthcare). The desalting buffer exchange was performed prior to diluting the protein to the final assay concentration of 3.5 μM. The concentration of proMMP13(1-268) (SEQ ID NO:7) was estimated spectrophotometrically based on a calculated extinction coefficient of ε280=37000 M^−1 cm^−1, a calculated molecular weight of 30.8 kDa, and calculated pI of 5.33. ThermoFluor® reference conditions were defined as follows: 100 μg/mL proMMP13(1-268) (SEQ ID NO:7), 25 μM 1,8-ANS, pH 7.0 Buffer (50 mM HEPES pH 7.0, 100 mM NaCl, 0.001% Tween-20, 2.5 mM MgCl2, 300 μM CaCl2). The thermodynamic parameters for proMMP13(1-268) (SEQ ID NO:7) are as follows: Tm (° C.)=67 (+/−0.1), ΔUH(Tm) (cal mol^−1)=107000(+/−5000), ΔUS(Tm) (cal mol^−1 K^−1)=318, ΔUCp (cal mol^−1 K^−1)=2600.

[3] = target: T3, proMMP9(67-444;ΔFnII) (SEQ ID NO:5) (Homo sapiens, UniProt P14780, DEL216-390); assay: ThermoFluor binding assay with proMMP9(67-444;ΔFnII)
T3 construct: amino acid pairs including: 29-215/391-444, 67-215/391-444, and 20-215/391-445, respectively; start methionine (N); made in house; host or cells: E. coli BL21(DE3) RIL
T3 sequence (P14780 with tags, fused parts or gaps DEL216-390): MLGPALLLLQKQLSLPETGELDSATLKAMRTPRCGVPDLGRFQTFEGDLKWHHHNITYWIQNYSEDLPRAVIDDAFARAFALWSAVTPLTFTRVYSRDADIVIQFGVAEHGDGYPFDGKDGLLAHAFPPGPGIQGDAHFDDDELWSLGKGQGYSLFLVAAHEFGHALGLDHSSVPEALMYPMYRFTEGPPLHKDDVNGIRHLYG
Description: as §1, §2, §3, §4
The protein sample preparations had to include a desalting buffer exchange step via a PD-10 gravity column (GE Healthcare).

[4] = target: full-length proMMP9(1-707) activation by catalytic MMP3 (Homo sapiens, UniProt P14780, R574P); assay: ProMMP9/MMP3 DQ Gelatin Activation Assay;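 note: readout is fluorescence of quenched fluorescein gelatin cut by activated MMP9, 30 min activation at 37 °C, inhibition relative to DMSO-only controls with EDTA as blank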; assay type: biochemical; design: made in house; host or cells: COS-1 (proMMP9); E. coli (MMP3); settings: proMMP9 from COS-1 cells; read-out: ProMMP9/MMP3 DQ gel, IC50
full-length proMMP9(1-707) activation by catalytic MMP3, sequence (P14780 20-707 R574P): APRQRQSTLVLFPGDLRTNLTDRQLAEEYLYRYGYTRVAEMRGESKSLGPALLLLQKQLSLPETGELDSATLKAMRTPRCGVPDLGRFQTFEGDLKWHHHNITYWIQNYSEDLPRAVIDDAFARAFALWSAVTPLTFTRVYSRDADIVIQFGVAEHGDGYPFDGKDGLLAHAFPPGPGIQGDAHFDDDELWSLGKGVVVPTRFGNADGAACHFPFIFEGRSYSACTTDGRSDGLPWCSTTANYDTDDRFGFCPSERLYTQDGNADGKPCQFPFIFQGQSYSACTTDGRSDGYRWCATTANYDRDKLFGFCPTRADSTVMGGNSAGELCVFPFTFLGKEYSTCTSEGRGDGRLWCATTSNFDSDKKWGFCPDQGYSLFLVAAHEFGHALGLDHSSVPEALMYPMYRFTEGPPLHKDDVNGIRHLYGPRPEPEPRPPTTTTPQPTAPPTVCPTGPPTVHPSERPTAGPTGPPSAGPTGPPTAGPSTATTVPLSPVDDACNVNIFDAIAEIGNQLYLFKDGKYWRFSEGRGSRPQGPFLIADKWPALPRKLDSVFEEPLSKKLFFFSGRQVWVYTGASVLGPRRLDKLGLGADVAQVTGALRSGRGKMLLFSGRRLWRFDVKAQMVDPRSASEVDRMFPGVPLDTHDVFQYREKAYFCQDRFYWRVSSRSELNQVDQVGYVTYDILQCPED
Description: Compounds were assessed for inhibition of proMMP9 activation by catalytic MMP3 using a quenched fluorescein gelatin substrate (DQ gelatin, Invitrogen D12054) that fluoresces upon cleavage by activated MMP9. The assay buffer employed was 50 mM Hepes, pH 7.5, 10 mM CaCl2, 0.05% Brij-35. DMSO was included at a final concentration of 0.2%, arising from the test compound addition. […] Test compounds in DMSO were diluted 250-fold in assay buffer at 4× the final concentration. The reaction volume was 12 μL, and all reactions were conducted in triplicate. […] The plate was sealed and incubated for 30 min at 37° C. […] Immediately following the 30 min incubation, 4 μL of 40 μg/ml DQ gelatin substrate was added (freshly diluted in assay buffer), and incubated for 10 min at room temperature. […] Reactivity of residual MMP3 towards DQ gelatin was minimal under these conditions. Percent inhibition of test compounds were determined from suitable positive (DMSO only in assay buffer) and negative (EDTA added prior to reaction initiation) controls. Plots of % inhibition vs. test compound concentration were fit to a four-parameter logistics equation (GraphPad Prism® software) for determination of IC50.

| SMILES | Kd [1] [µM] | Kd [2] [µM] | Kd [3] [µM] | IC50 [4] [µM] |
| --- | --- | --- | --- | --- |
| COc1c(Cl)cccc1Nc1nc(-c2sc(N)nc2C)cs1 [Example 7, N^2-(3-Chloro-2-methoxy-phenyl)-4′-methyl-[4,5′]bithiazolyl-2,2′-diamine.HBr] | 12.9 | 44.6 | 8.84 |  |
| Cc1nc(N)sc1-c1csc(Nc2cccc(C(N)=O)c2)n1 [Example 8, 3-(2′-Amino-4′-methyl-[4,5′]bithiazolyl-2-ylamino)-benzamide.HBr] | 10.8 | 26.9 | 30.2 |  |
| COc1ccccc1Nc1nc(-c2cnc(N)s2)cs1 [Example 10, N^2-(2-Methoxy-phenyl)-[4,5′]bithiazolyl-2,2′-diamine.HBr] | 9.61 | 55.9 | 3.67 |  |
| CCc1nc(N)sc1-c1nc(Nc2ccccc2OC)sc1C [Example 11, 4′-Ethyl-N^2-(2-methoxy-phenyl)-5-methyl-[4,5′]bithiazolyl-2,2′-diamine] | > 95 | 58.9 | 19.9 |  |
| CCc1nc(N)sc1-c1nc(Nc2cc(Cl)ccc2OC)sc1C [Example 17, N^2-(5-Chloro-2-methoxy-phenyl)-4′-ethyl-5-methyl-[4,5′]bithiazolyl-2,2′-diamine] | 15.6 | 10.7 | 3.99 |  |
| COc1ccccc1Nc1nc(-c2sc(N)nc2C(F)(F)F)cs1 [Example 22, N^2-(2-Methoxy-phenyl)-4′-trifluoromethyl-[4,5′]bithiazolyl-2,2′-diamine.TFA] | 12.3 | 44.2 | 2.32 |  |
| COc1ccccc1Nc1nc(-c2sc(-c3cnccn3)nc2C)cs1 [Example 26, (2-Methoxy-phenyl)-(4′-methyl-2′-pyrazin-2-yl-[4,5′]bithiazolyl-2-yl)-amine.TFA] | > 95 | 4.78 | > 95 | 13.8 |
| COc1ccc(-c2csc(Nc3ccccc3OC)n2)cn1 [Example 28, (2-Methoxy-phenyl)-[4-(6-methoxy-pyridin-3-yl)-thiazol-2-yl]-amine.TFA] | > 65 | > 95 | 22.6 | 15.6 |
| COc1ccccc1Nc1nc(-c2cc(C)ccn2)cs1 [Example 30, (2-Methoxy-phenyl)-[4-(4-methyl-pyridin-2-yl)-thiazol-2-yl]-amine.TFA] | > 95 | 42 | 13.8 |  |
| COc1ccccc1Nc1nc(-c2sc(NC(C)C)nc2C)cs1 [Example 37, N^2′-Isopropyl-N^2-(2-methoxy-phenyl)-4′-methyl-[4,5′]bithiazolyl-2,2′-diamine.HCl] | 5.16 | > 95 | 4.48 | > 20 |
| COc1ccccc1Nc1nc(-c2ccc(-c3ccccc3)s2)cs1 [Example 43, (2-Methoxy-phenyl)-[4-(5-phenyl-thiophen-2-yl)-thiazol-2-yl]-amine.TFA] | 76.7 | 20.4 | 13.1 | > 20 |
| COc1ccccc1Nc1nc(-c2oc(C)nc2C)cs1 [Example 44, [4-(2,4-Dimethyl-oxazol-5-yl)-thiazol-2-yl]-(2-methoxy-phenyl)-amine.TFA] | > 95 | > 95 | 44.7 | 11.9 |
| COc1ccccc1Nc1nc(-c2c(C)nc3ccccn23)cs1 [Example 46, (2-Methoxy-phenyl)-[4-(2-methyl-imidazo[1,2-a]pyridin-3-yl)-thiazol-2-yl]-amine] | 65.2 | 16 | 36.7 | 8.6 |
| CCOc1ccccc1Nc1nc(-c2sc(NC(=O)CC)nc2C)cs1 [Example 47, N-[2-(2-Ethoxy-phenylamino)-4′-methyl-[4,5′]bithiazolyl-2′-yl]-propionamide] | > 90 | > 95 | 40.9 | 5.2 |
| CCOc1ccccc1Nc1nc(-c2c(C)nc3ncccn23)cs1 [Example 52, (2-Ethoxy-phenyl)-[4-(2-methyl-imidazo[1,2-a]pyrimidin-3-yl)-thiazol-2-yl]-amine] | 7.27 | 13.2 | 9.09 | 3.3 |
| CCOc1ccccc1Nc1nc(-c2cccnc2)cs1 [Example 53, (2-Ethoxy-phenyl)-(4-pyridin-3-yl-thiazol-2-yl)-amine] | 28.6 | > 95 | 15.1 | 4.7 |
| COc1ccccc1Nc1nc(-c2cccnc2)cs1 [Example 55, (2-Methoxy-phenyl)-(4-pyridin-3-yl-thiazol-2-yl)-amine] | > 95 | > 95 | 22.5 | 13 |
| CCC(=O)Nc1nc(C)c(-c2csc(Nc3ccccc3OC)n2)s1 [Example 58, N-[2-(2-Methoxy-phenylamino)-4′-methyl-[4,5′]bithiazolyl-2′-yl]-propionamide] | 13.4 | > 95 | 3.01 | 2.6 |
| COc1ccccc1Nc1nc(-c2ccncc2)cs1 [Example 60, (2-Methoxy-phenyl)-(4-pyridin-4-yl-thiazol-2-yl)-amine] | 16.8 | 44.4 | 11.3 | 5.5 |
| COc1ccc(OC)c(Nc2nc(-c3sc(NC(C)=O)nc3C)cs2)c1 [Example 61, N-[2-(2,5-Dimethoxy-phenylamino)-4′-methyl-[4,5′]bithiazolyl-2′-yl]-acetamide] | 5.07 | 21 | 1.06 | 1.6 |
| CCc1ccccc1Nc1nc(-c2sc(NC(C)=O)nc2C)cs1 [Example 62, N-[2-(2-Ethyl-phenylamino)-4′-methyl-[4,5′]bithiazolyl-2′-yl]-acetamide] | 8.29 | 47.2 | 2.46 | 3.4 |
